Experimental findings from patent US20170298055A1, “sGC STIMULATORS” (IRONWOOD PHARMACEUTICALS, INC., priority 2014, published 2017) are described below.

The experiment addresses T1, soluble guanylate cyclase (sGC) (Homo sapiens, UniProt Q02108+Q02153).
T1 construct: endogenously expressing soluble guanylate cyclase (sGC); endogenous in cells; host or cells: HEK293
T1 sequence (Q02153 1-619): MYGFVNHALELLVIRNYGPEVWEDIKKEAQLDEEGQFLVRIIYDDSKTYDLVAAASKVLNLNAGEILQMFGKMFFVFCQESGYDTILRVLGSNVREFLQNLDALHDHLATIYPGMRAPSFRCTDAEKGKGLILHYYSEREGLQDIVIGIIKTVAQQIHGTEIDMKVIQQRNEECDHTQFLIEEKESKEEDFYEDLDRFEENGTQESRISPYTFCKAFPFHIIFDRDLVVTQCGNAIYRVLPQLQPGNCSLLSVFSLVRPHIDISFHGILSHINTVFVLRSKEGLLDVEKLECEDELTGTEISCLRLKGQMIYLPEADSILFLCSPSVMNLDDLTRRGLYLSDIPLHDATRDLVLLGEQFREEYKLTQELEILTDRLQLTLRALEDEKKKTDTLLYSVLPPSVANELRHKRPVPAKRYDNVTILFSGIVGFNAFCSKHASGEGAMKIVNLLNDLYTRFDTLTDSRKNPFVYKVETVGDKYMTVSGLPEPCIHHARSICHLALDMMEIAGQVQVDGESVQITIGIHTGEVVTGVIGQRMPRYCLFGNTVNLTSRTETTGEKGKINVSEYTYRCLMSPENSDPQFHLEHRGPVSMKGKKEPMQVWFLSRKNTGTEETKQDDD
T1 sequence (Q02108 1-690): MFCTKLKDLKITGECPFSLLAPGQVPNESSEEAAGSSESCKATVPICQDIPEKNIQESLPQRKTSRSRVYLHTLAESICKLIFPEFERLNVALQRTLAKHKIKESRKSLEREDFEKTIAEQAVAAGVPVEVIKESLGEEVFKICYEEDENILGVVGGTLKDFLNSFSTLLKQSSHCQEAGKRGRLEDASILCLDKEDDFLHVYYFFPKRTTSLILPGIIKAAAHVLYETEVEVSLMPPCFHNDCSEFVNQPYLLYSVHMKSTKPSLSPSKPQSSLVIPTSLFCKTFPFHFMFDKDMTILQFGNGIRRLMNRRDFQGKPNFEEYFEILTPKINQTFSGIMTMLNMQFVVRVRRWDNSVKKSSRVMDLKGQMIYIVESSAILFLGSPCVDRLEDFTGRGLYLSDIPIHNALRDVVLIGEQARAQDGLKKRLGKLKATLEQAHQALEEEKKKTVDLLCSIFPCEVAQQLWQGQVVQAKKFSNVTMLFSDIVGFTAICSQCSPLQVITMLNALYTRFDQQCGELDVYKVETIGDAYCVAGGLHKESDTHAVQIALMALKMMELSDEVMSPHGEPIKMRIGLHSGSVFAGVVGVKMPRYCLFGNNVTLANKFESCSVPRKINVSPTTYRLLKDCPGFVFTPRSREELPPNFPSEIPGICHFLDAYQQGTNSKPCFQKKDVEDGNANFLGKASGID
The experiment is described as follows: sGC-HEK-cGMP assay, LC/MS detection, updated conditions with DETA-NONOate (Example 2B). It is filed as cell-based. Conditions: read-out: sGC_HEK_LCMS EC50/IC50 Abs (Norm) (nM) Binned. How it is done:
Human embryonic kidney cells (HEK293), endogenously expressing soluble guanylate cyclase (sGC), were used to evaluate the activity of test compounds. Compounds stimulating the sGC enzyme should cause an increase in the intracellular concentration of cGMP. HEK 293 cells were seeded in Dulbecco's Modification of Eagle's Medium supplemented with fetal bovine serum (10% final) and penicillin (100 U/mL)/streptomycin (100 μg/mL) in a 50 μL volume at a density of 1.5×10^4 cells/well in a poly-D-lysine coated 384 well flat bottom plate. Cells were incubated overnight at 37° C. in a humidified chamber with 5% CO2. Medium was aspirated and cells were washed with 1× Hank's Buffered Saline Salt Solution (50 μL). Cells were then incubated for 15 minutes at 37° C. with 50 μL of a 0.5 mM 3-isobutyl-1-methylxanthine (IBMX) solution. Test article and Diethylenetriamine NONOate (DETA-NONOate) solutions (x μM concentration for test article solution and 10 μM concentration for DETA-NONOate solution; wherein x is one of the following concentrations);
were then added to the assay mixture and the resulting mixture incubated at 37° C. for 20 minutes. […]
cGMP concentrations were determined from each sample using the LCMS conditions below (Table 2B) and calculated standard curve. […]

Regarding `CN(C)CCOc1nc(-c2cc(-c3ccon3)n(Cc3ccccc3F)n2)ncc1F` [Compound I-2], the EC50 was more than 1000 nM. The figure for `OCCOc1nc(-c2cc(-c3ccon3)n(Cc3ccccc3F)n2)ncc1F` [Compound I-1] is 100 to 1000 nM.
